Source: patent publication US11602510B2, “Agent for use in the treatment of dyslipidemia” (Flexopharm Brain GMBH & Co. KG, priority 2017, dated 2023)
Entries after “also recorded” stand apart in the source; their conditions may differ. Like-named read-outs stand apart in the source and are kept apart here.

Columns and labels:
[1] = system: LDL receptor; experiment: LDL receptor expression by reverse transcriptase-polymerase chain reaction in the liver; type: in vivo; conditions: RT-PCR in the liver following treatment, FIG. 8
[2] = system: HMG-CoA synthase; experiment: HMG-CoA synthase mRNA expression by reverse transcriptase-polymerase chain reaction; type: in vivo; conditions: RT-PCR, FIG. 5
[3] = system: PCSK9; experiment: PCSK9 expression by reverse transcriptase-polymerase chain reaction; type: in vivo; conditions: RT-PCR, FIG. 7
[4] = system: HMG-CoA reductase; experiment: HMG-CoA reductase expression by reverse transcriptase-polymerase chain reaction; type: in vivo; conditions: RT-PCR, FIG. 6
[5] = system: hypercholesterolemic mouse model; experiment: LDL cholesterol in the hypercholesterolemic mouse model (high fat diet); type: in vivo
Source text: HF: High Fat (60 KJ % fat content); PA: Propionic Acid. […] HFD: High Fat Diet; PA: Propionic Acid.

[6] = system: patients whose LDL cholesterol level had been adjusted to a stable level by atorvastatin; experiment: Patient study: propionate added to stable atorvastatin treatment, LDL value; type: in vivo, human; conditions: for LDL value / LDL cholesterol level (in words): 2×500 mg propionate for more than eight weeks in addition to atorvastatin, five patients, FIG. 9
Experimental: The decrease appears to be greatest in patients showing the highest initial LDL value,
FIG. 10 is a block diagram showing the result of a patient study. On the left, the diagram indicates the averaged initial value of the patients stable through administration of atorvastatin, on the right the averaged LDL value of the patients after taking 2×500 mg of propionate daily for at least eight weeks.
The patient study attests to the positive influence of 2×500 mg of sodium propionate in addition to atorvastatin.

[7] = system: patients with dyslipidemia; experiment: LDL cholesterol in patients with dyslipidemia treated with propionic acid; type: in vivo, human; conditions: n=24, initial LDL cholesterol >110 mg/dl, after 2-6 months of treatment, FIG. 4
[8] = system: patients; conditions: high doses, cited from earlier work
[9] = system: pigs; conditions: comparatively higher doses; cited from earlier work
[10] = system: rats; conditions: oral and rectal administration of high doses; cited from earlier work
[11] = system: rats with normal and cholesterol-rich diets; conditions: cited from earlier work

SMILES	expression of the LDL receptor [1]	expression of HMG-CoA synthase at mRNA level [2]	expression of PCSK9 [3]	expression of HMG-CoA reductase [4]	expression of HMG-CoA reductase ([4]; listed as Propionate)	LDL cholesterol ([5]; propionate alone, High Fat (60 KJ % fat content), FIG. 2)	LDL cholesterol ([5]; propionic acid additionally administered to atorvastatin, High Fat Diet, FIG. 3)	reduction of the LDL value on average ([6]; 2×500 mg propionate daily for at least eight weeks on top of stable atorvastatin, FIG. 10)	LDL value / LDL cholesterol level (in words) [6]	expression of HMG-CoA synthase at mRNA level ([2]; listed as Propionate)	cholesterol-lowering effect (LDL cholesterol) [7]	expression of PCSK9 ([3]; listed as Propionates)	serum cholesterol level ([8]; one case)	HDL serum cholesterol concentration ([8]; second case)	cholesterol concentration in back fat [9]	cholesterol content in the liver [9]	total cholesterol [9]	liver cholesterol levels [10]	total cholesterol ([11]; rats consuming cholesterol-rich food, about 100 mg per day)	total cholesterol ([11]; rats fed a normal diet)
CC(C)c1c(C(=O)Nc2ccccc2)c(-c2ccccc2)c(-c2ccc(F)cc2)n1CC[C@@H](O)C[C@@H](O)CC(=O)O [atorvastatin, reference compound]	Neither the propionic acid nor the atorvastatin has an effect	but not by atorvastatin	increased expression; also recorded: increase in PCSK9 expression	–	–	–	–	–	–	–	–	–	–	–	–	–	–	–	–	–
CCC(=O)O [propionic acid, Propionic acid]	Neither the propionic acid nor the atorvastatin has an effect	negatively regulated; also recorded: reduced expression	no influence	negatively regulated; also recorded: reduced expression	significantly down-regulated	reduction of LDL cholesterol	trend towards further reduction of LDL cholesterol	~40%	the LDL value was reduced	significantly down-regulated; also recorded: much more pronounced than that of atorvastatin	cholesterol-lowering effect	do not have an effect	slight reduction	increased	significantly higher cholesterol concentration	slight increase	reduced total cholesterol	–	–	–
CCC(=O)[O-].[Na+] [sodium propionate]	–	–	–	–	–	–	–	–	further significantly reduced	–	–	–	–	–	–	–	–	only insignificantly	significant reduction in total cholesterol	practically no effect
